Like-named read-outs stand apart in the source and are kept apart here.
Assays:
Format in all cases: cell-based
[1] = system: Human monocyte derived dendritic cells; assay: LPS-stimulated monocyte-derived dendritic cell IL-12 release, ELISA; conditions: for inhibition at 1 µM: Homo sapiens, Dendritic cell, 18 h, read-out: Inhibition (percent) of IL-12 release; for inhibition at 1 µM / Inhibition (percent) of IL-12 release: 10 ng/mL LPS, approx. 18 hr; for Inhibition (percent) of IL-12 release: 1 µM of PGE2
From the text: Following stimulation through the toll-like receptors TLR, DCs express and release proinflammatory cytokines and chemokines and may induce activation and proliferation of naïve T cells. The binding of Nileprost to the EP receptor inhibits TLR4 ligand (LPS)-stimulated IL-12 release. Therefore, Nileprost skews the CD4 T cell differentiation to a Th-2 lineage.
IL-12 is a 75 kDa glycoprotein heterodimer (p70) composed of two genetically unrelated subunits linked by a disulfide bond. Enzyme-linked immunosorbant assays based on antibodies specific to IL-12 p70 are commercially available. Standards and samples are pipetted into the wells of a microplate. An antibody specific to human IL-12 is added to the wells. A substrate is added to the wells and color develops in proportion to the amount of IL-12 bound. The intensity of the color is measured.
Human monocyte-derived dendritic cells were isolated from human donors using a Ficoll density gradient and residual erythrocytes were removed by selective lysis. CD14 MicroBeads were used for separation of human cells based on the expression of the CD14 antigen. The dendritic cells were cultured at approximately 1.5×10^6 cells per mL in RPMI1640 with fetal bovine serum, 200 ng/mL GM-CSF (Leukine) and 10 ng/mL IL-4. The cells grew for a period of 3 days and then the media was changed. 10 ng/mL LPS was used to activate the cells. 1 μM of Nileprost and 1 µM of PGE2 were added during the LPS stimulation. Cells were incubated for approximately 18 hr at 37° C. IL-12 released during activation was measured by ELISA.

[2] = system: human T cells; assay: ConA-stimulated T lymphocyte Th-1 cytokine (IFN-γ) release, ELISA; conditions: for inhibition at 0.0005 µM / inhibition at 0.00125 µM / inhibition at 0.0025 µM / inhibition at 0.005 µM / inhibition at 0.01 µM / inhibition at 0.02 µM: Homo sapiens, T-cell, 18 h, ConA 2 μg/mL, approx. 18 hr, read-out: Inhibition (percent) of IFN-γ release; for inhibition at 0.0005 µM: Nileprost 0.5 nM; for inhibition at 0.00125 µM: Nileprost 1.25 nM; for inhibition at 0.0025 µM: Nileprost 2.5 nM; for inhibition at 0.005 µM: Nileprost 5 nM; for inhibition at 0.01 µM: Nileprost 10 nM; for inhibition at 0.02 µM: Nileprost 20 nM
From the text: The activation of a human T lymphocyte by an antigen-presenting cell and antigen through the T cell receptor is mimicked in experimental conditions by the lectin Concanavilin A (ConA). It is known that ConA binds to the T cell receptor and stimulates the cell to release various cytokines. The binding of Nileprost to the EP receptor inhibits various cytokines release. One of the Th-1 released cytokines is IFN-γ. The biochemistry and biological activities of IFN-γ have been extensively reviewed in the literature.
Human IFN-γ is a dimer of the expressed 143 amino acid protein. Enzyme-linked immunosorbant assays (ELISA) based on antibodies specific to IFN-γ are commercially available. Standards and samples are pipetted into the wells of a microplate. An antibody specific to human IFN-γ is added to the wells. A substrate is added to the wells and color develops in proportion to the amount of IFN-γ bound. The intensity of the color is measured.
Peripheral blood lymphocytes were isolated from human donors using a Ficoll density gradient and residual erythrocytes were removed by selective lysis. The lymphocytes are cultured at approximately 10^6 cells per mL in RPMI1640 with 10% additional fetal bovine serum. The cell cultures were activated with 2 μg/mL of ConA as described above. Nileprost was added at various dilutions during the ConA activation. Cells were incubated for approximately 18 hr at 37° C. IFN-γ released during activation was measured by ELISA.

[3] = system: human CD8 cells; assay: Anti-CD3/CD28-stimulated cytotoxic CD8+ lymphocyte cytokine release, multi-cytokine bead immunoassay; conditions: 1 μM Nileprost; for inhibition at 1 µM: Homo sapiens, Lymphocyte, Anti-CD3/CD28 stimulation, overnight
From the text: The activation of a human T lymphocyte by an antigen-presenting cell and antigen through the T cell receptor is mimicked in experimental conditions by the addition of antibodies to the CD3 subunit of the T cell receptor and antibodies to the CD28 costimulatory receptor. It is known that anti-CD3 anti-CD28 binding to T lymphocytes stimulates the cells to release various cytokines. Some of these cytokines are IL-2, IFN-γ and GM-CSF. The biochemistry and biological activities of these cytokines have been extensively reviewed in the literature. The binding of Nileprost to the EP receptor inhibits the release of various CD8+ cytokines.
Multi-cytokine immunosorbant assays based on antibodies specific to human cytokines are commercially available. Standards and samples are pipetted into sample tubes. A monoclonal antibody specific for a cytokine is covalently linked to a fluorescent bead set, which captures the cytokine. A complementary biotinylated monoclonal cytokine antibody then completes the immunological sandwich and the reaction is detected with streptavidin-phycoerythrin.
CD14-negative populations were isolated from four donors by Miltenyi CD14 beads. The four populations were allowed to rest at 5×10^6/mL in separate flasks overnight in RPMI 1640, 10% fetal bovine serum. Meanwhile, anti-CD3 antibody (OKT3, functional antibody, eBioscience) were bound to 10 cm plates at 5 μg/mL in sodium carbonate binding buffer at 4° C. The next day, the cells were mixed and 1×10^9 cells were taken for CD8 isolation using the Milenyi CD8 isolation kit (negative selection). The resulting 3.9×10^8 CD8 cells were resuspended in medium at 4×10^6/mL and added to the 10 cm CD3-bound plates. Soluble anti-CD28 (2-5 μg/mL) and 1 μM Nileprost or vehicle alone were added to the CD8 cells. Incubation was continued overnight and cytokines were detected as described above.

SMILES: CCCCC(C)[C@H](O)/C=C/[C@@H]1[C@H]2C/C(=C(\C#N)CCCC(=O)O)O[C@H]2C[C@H]1O (some centres unmarked) [Nileprost]
- Inhibitory activity in human monocyte-derived dendritic cell (DC) cytokine release (in words) ([1]; 1 μM of Nileprost): very high inhibitory activity
- inhibition at 1 µM ([1]; Donor 1, 1 μM of Nileprost): 84%
- inhibition at 1 µM ([1]; Donor 2, 1 μM of Nileprost): 51%
- inhibition at 1 µM ([1]; Donor 3, 1 μM of Nileprost): 69%
- inhibition at 1 µM ([1]; Donor 4, 1 μM of Nileprost): 66%
- inhibition at 0.0005 µM ([2]; Donor 1): 17%
- inhibition at 0.00125 µM ([2]; Donor 1): 23%
- inhibition at 0.0025 µM ([2]; Donor 1): 45%
- inhibition at 0.005 µM ([2]; Donor 1): 56%
- inhibition at 0.01 µM ([2]; Donor 1): 50%
- inhibition at 0.02 µM ([2]; Donor 1): 67%
- inhibition at 0.0005 µM ([2]; Donor 2): 2%
- inhibition at 0.00125 µM ([2]; Donor 2): 11%
- inhibition at 0.0025 µM ([2]; Donor 2): 17%
- inhibition at 0.005 µM ([2]; Donor 2): 35%
- inhibition at 0.01 µM ([2]; Donor 2): 43%
- inhibition at 0.02 µM ([2]; Donor 2): 41%
- inhibition at 0.0005 µM ([2]; Donor 3): 26%
- inhibition at 0.00125 µM ([2]; Donor 3): 36%
- inhibition at 0.0025 µM ([2]; Donor 3): 43%
- inhibition at 0.005 µM ([2]; Donor 3): 54%
- inhibition at 0.01 µM ([2]; Donor 3): 64%
- inhibition at 0.02 µM ([2]; Donor 3): 68%
- inhibition at 0.0005 µM ([2]; Donor 4): 21%
- inhibition at 0.00125 µM ([2]; Donor 4): 29%
- inhibition at 0.0025 µM ([2]; Donor 4): 31%
- inhibition at 0.005 µM ([2]; Donor 4): 48%
- inhibition at 0.01 µM ([2]; Donor 4): 55%
- inhibition at 0.02 µM ([2]; Donor 4): 56%
- Inhibitory activity in T lymphocyte Th-1 cytokine release (in words) ([2]; dose responsively, 0.5-20 nM): very high inhibitory activity
- Inhibitory activity in cytotoxic CD8+ lymphocyte cytokine release (in words) [3]: very high inhibitory activity
- inhibition at 1 µM ([3]; Donor 1, read-out: Inhibition (percent) of GM-CSF release): 77%
- inhibition at 1 µM ([3]; Donor 1, read-out: Inhibition (percent) of IFN-γ release): 79%
- inhibition at 1 µM ([3]; Donor 1, read-out: Inhibition (percent) of IL-2 release): 71%
- inhibition at 1 µM ([3]; Donor 2, read-out: Inhibition (percent) of GM-CSF release): 65%
- inhibition at 1 µM ([3]; Donor 2, read-out: Inhibition (percent) of IFN-γ release): 59%
- inhibition at 1 µM ([3]; Donor 2, read-out: Inhibition (percent) of IL-2 release): 68%
- inhibition at 1 µM ([3]; Donor 3, read-out: Inhibition (percent) of GM-CSF release): 87%
- inhibition at 1 µM ([3]; Donor 3, read-out: Inhibition (percent) of IFN-γ release): 79%
- inhibition at 1 µM ([3]; Donor 3, read-out: Inhibition (percent) of IL-2 release): 88%
- inhibition at 1 µM ([3]; Donor 4, read-out: Inhibition (percent) of GM-CSF release): 61%
- inhibition at 1 µM ([3]; Donor 4, read-out: Inhibition (percent) of IFN-γ release): 80%
- inhibition at 1 µM ([3]; Donor 4, read-out: Inhibition (percent) of IL-2 release): 70%

SMILES: CCCCC[C@H](O)/C=C/[C@H]1[C@H](O)CC(=O)[C@@H]1C/C=C\CCCC(=O)O [PGE2, Prostaglandin E2, reference compound]
- Inhibition (percent) of IL-12 release ([1]; Donor 1): 80%
- Inhibition (percent) of IL-12 release ([1]; Donor 2): 33%
- Inhibition (percent) of IL-12 release ([1]; Donor 3): 83%
- Inhibition (percent) of IL-12 release ([1]; Donor 4): 72%

Source: patent publication US20080021099A1, “5-Cyano-prostacyclin derivatives as agents for the treatment of autoimmune disease” (Bayer Schering Pharma Aktiengesellschaft, priority 2006, published 2008)
